# Patent US20080234347A1, “METHOD FOR TREATING CB2 RECEPTOR MEDIATED PAIN” (priority 2007, published 2008)
# Columns and labels:
# male Sprague-Dawley rats [1] = experiment: Carrageenan model of inflammatory pain, radiant heat paw withdrawal, compound given after carrageenan (Example 2); type: in vivo, rat; details: read thirty minutes after compound, mean ± SEM
# Method: (§1) To assess the ability of test compounds to reverse thermal hyperalgesia, baseline response latencies on a radiant heat (RH) paw stimulator were obtained before an intraplantar injection of carrageenan-λ (200 μL) in male Sprague-Dawley rats (250-350 g in treatment groups of […] each). Only withdrawal responses that were quick hind paw movements (with or without licking of the hind paw) were recorded. Paw movements associated with locomotion or a shifting of weight were not considered a withdrawal response.
# (§2) The weight of each animal was recorded on the day of the experiment. Each animal was placed on a warm (approx. body temperature, 30° C.) glass surface and allowed to acclimate to the test chamber for approximately 10-15 minutes. A radiant thermal stimulus (beam of light) was then focused on the sole of each hind paw in turn, and an initial (baseline) response time to thermal stimuli was recorded for each animal. The stimulus intensity (radiant heat at a setting of 5 Amps) that produced 10-15 sec baseline withdrawal latencies was used and a maximum cutoff of 20 sec was imposed. The light stimulus was automatically shut off by a photoelectric relay when the foot moved or when the cut-off time limit was reached.
# The experiment of Example 1 was repeated with the exception that animals were first administered 1% carrageenan (200 μL in sterile saline) subcutaneously into the sub-plantar tissue of the left hind paw to stimulate an acute inflammatory reaction.
# Two and a half hours later, withdrawal latencies were assessed (‘post-Cg’). One treatment group (7 animals each) was then injected i.p. with vehicle (5% DMSO and 5% Tween-80 in sterile saline). The other treatment groups (8 animals each) were injected i.p. with 3, 10 or 30 mg/kg Compound 7. Thirty minutes after test compound administration withdrawal latencies were recorded.
# [2] = test system: Rats (male Sprague Dawley); experiment: Visceral hyperalgesia model, colorectal distension after zymosan colitis; type: in vivo, rat; details: ± SEM
# Method: This protocol uses barostat-controlled, isobaric colorectal distensions (CRD) in rats to evaluate the potency and efficacy of test compounds in treating visceral hyperalgesia.
# Rats (male Sprague Dawley (275-350 g; CD(SD); Charles River Labs) are housed 2 to 4 animals per cage in a temperature and humidity controlled room with a 12 hr/12 hr light/dark cycle, with ad libitum access to food and water.
# One day after release from quarantine, the animals were acclimated to progressively longer (30 min and 4 hr later, 45 min) periods of simple restraint in plexiglas devices (G-3, rat ECU; Braintree Scientific; Braintree Mass.). The animals were returned to their home cages overnight. The next day they were acclimated in the restraint device for 60 min in the morning. 4 hrs later, the animals were lightly anesthetized with 70% CO2:30% O2. A highly compliant, 4 cm long polyethylene balloon, lubricated with K-Y Jelly was then inserted via the anus into the rectum and distal colon. The balloon was positioned such that the aboral end was 1 cm from the anus and was secured in place by taping the balloon catheter to the base of the tail. The catheter was connected to a computerized barostat that controlled the inflation of the balloon and the resulting colorectal distension. The balloon pressure, representing intracolonic pressure, was continuously recorded.
# CRD in conscious animals elicits a reflex visceromotor response consisting of contraction of the anterior abdominal wall muscles (Ness T J and Gebhart G F, Colorectal distension as a noxious visceral stimulus: physiologic and pharmacologic characterization of pseudaffective reflexes in the rat, Brain Res., (1988), 450: 153-169). Contraction of these muscles increases intraabdominal pressure and subsequently increases intracolonic pressure. Changes in intracolonic pressure are transduced through the same balloon used to deliver the CRD. The manometric endpoint has recently been reported to mimic electromyographic responses recorded from anterior abdominal wall muscles in rats (Tammpere A, Brusberg M, Axenborg J, Hirsch I, Larsson H and Lindstrom E, Evaluation of pseudo-affective responses to noxious colorectal distension in rats by manometric recordings, Pain, (2005), 116: 220-226)
# Stimulus-response data were obtained by delivering two series of 20 sec ramp (15, 30, 45, 60, 75 mmHg) distensions at four-minute intervals and recording the manometric response as follows: the intracolonic pressure signal is passed through a digital 1 Hz highpass filter, rectified and the integral of the initial 15 seconds of the CRD subjected to baseline subtraction (the 15 sec immediately preceding balloon distension); the responses at each distending pressure are averaged to obtain a control stimulus/response curve for each animal. The colorectal balloons were then removed and the animals were returned to their home cages.
# The following morning, one treatment group (4 animals) was injected i.p. with 10 mg/kg Compound 7 (solubilized in 5% DMSO and 5% Tween-80 in sterile saline).
# One hour later, an acute colitis was induced in all treatment groups by the intracolonic instillation of a 1.5 mL bolus of 2.5% (w/v) zymosan A (from Saccharomyces cerevisiae; Sigma Chemical Co., St. Louis) in 30% ethanol (under light 70% CO2:30% O2 anesthesia). Four hours later, the animals were lightly anesthetized and the colorectal balloons inserted as on the previous day for controlled distensions. The identical CRD stimuli was applied and manometric responses were recorded and analyzed as described for the control phase of the experiment.
# The animals in one treatment group (4 animals) were then subcutaneously (s.c.) dosed with 1 mg/kg morphine. As a comparator for analgesic response, animals in another treatment group (9 animals) were dosed s.c. with 3 mg/kg morphine 4 hrs after colitis initiation and 30 min prior to CRD.
# male Sprague-Dawley rats [3] = experiment: Carrageenan model of inflammatory pain, radiant heat paw withdrawal, compound given before carrageenan (Example 1); type: in vivo, rat; details: 1 h before 1% carrageenan, mean ± SEM, cutoff 20 sec
# Method: Intraplantar injection of carrageenan (Cg) in a rodent produces pronounced hypersensitivity to both thermal and mechanical stimuli. The effects of carrageenan are maximal 2-4 hr after administration.
# as §1, §2
# One treatment group (8 animals each) was injected i.p. with vehicle (5% DMSO and 5% Tween-80 in sterile saline). The other treatment groups (8 animals each) were injected i.p. with 3, 10 or 30 mg/kg Compound 7.
# One hour later, withdrawal latencies for the animals administered vehicle were recorded. After assessment, all animals were administered 1% carrageenan (200 μL in sterile saline) subcutaneously into the sub-plantar tissue of the left hind paw to stimulate an acute inflammatory reaction. Three hours later, the response time of the animals to the thermal stimulus was evaluated.
# Male CD-1 mice = experiment: Hot-plate nociception test; type: in vivo, mouse; details: 30 min after dosing, 48° C. hot plate, cut-off 90 sec, ± SEM
# Excerpt: The hot-plate test originally described by Eddy and Leimbach (J. Pharmacol. Exp. Ther. 107:385-393, 1953) with minor modifications (e.g., O'Callaghan and Holtzman, J. Pharmacol. Exp. Ther. 192: 497-505, 1975) was used to ascertain the analgesic potential of investigated compounds. The hot plate analgesia meter used for these studies was produced by Columbus Instruments International (Columbus, Ohio).
# Male CD-1 mice (30-35 g) were weighed, placed in a plastic box with wood chips and allowed to acclimate before testing. An individual mouse was placed on a 48° C. heated surface and locomotion on the plate was constrained by a glass cylinder. The time interval between placement and a shaking, licking or tucking of either hind-paw (nociceptive response) was recorded as the Baseline measurement. Animals were removed from the heated plate immediately after responding or after a maximum of 40 sec to prevent tissue damage. Each mouse was tested only once.
# One treatment group (9 animals each) was then injected i.p. with vehicle (5% DMSO and 5% Tween-80 in sterile saline). The other treatment groups (8 animals each) were injected i.p. with 10 or 30 mg/kg Compound I. Thirty minutes after test compound administration, each animal was assessed for a response with a maximum cut-off of 90 sec. […]
# CB2 receptor = target: T1, CB2 receptor (Rattus norvegicus, UniProt Q9QZN9); details: background literature statement; cited from earlier work
# T1 sequence (Q9QZN9 1-360): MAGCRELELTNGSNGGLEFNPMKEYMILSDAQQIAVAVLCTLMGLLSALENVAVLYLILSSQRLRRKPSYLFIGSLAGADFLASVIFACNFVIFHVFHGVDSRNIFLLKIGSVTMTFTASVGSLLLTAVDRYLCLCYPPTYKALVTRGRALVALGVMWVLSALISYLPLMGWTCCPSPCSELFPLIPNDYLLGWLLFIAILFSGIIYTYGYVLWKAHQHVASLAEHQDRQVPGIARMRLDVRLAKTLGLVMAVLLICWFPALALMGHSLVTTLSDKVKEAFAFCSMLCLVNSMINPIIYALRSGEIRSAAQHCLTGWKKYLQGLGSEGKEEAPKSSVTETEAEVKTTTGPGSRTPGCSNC
smiles,measurement,setting,value
"C[C@H](NS(=O)(=O)/C=C/c1n[nH]c2c1CCCC/C2=C\c1ccc(Cl)cc1)c1ccccc1 [Compound 7, (2E,8E)-2-[8-(4-chloro-benzylidene)-1,4,5,6,7,8-hexahydro-cycloheptapyrazol-3-yl]-ethenesulfonic acid [(1S)-1-phenyl-ethyl]-amide]","withdrawal latency to radiant thermal stimulus, 0.5 hrs post Cg",male Sprague-Dawley rats [1]; 3 mg/kg i.p. given 2.5 h after carrageenan,5.30 ± 0.48 s
same,"withdrawal latency to radiant thermal stimulus, 0.5 hrs post Cg",male Sprague-Dawley rats [1]; 10 mg/kg i.p. given 2.5 h after carrageenan,5.33 ± 0.48 s
same,"withdrawal latency to radiant thermal stimulus, 0.5 hrs post Cg",male Sprague-Dawley rats [1]; 30 mg/kg i.p. given 2.5 h after carrageenan,4.53 ± 0.39 s
same,"manometric response, percent of initial (control) response","[2]; 15 mmHg distension, 10 mg/kg i.p. 1 h before zymosan colitis, n = 4",245.7 ± 87.76%
same,"manometric response, percent of initial (control) response","[2]; 30 mmHg distension, 10 mg/kg i.p. 1 h before zymosan colitis, n = 4",527.2 ± 196.8%
same,"manometric response, percent of initial (control) response","[2]; 45 mmHg distension, 10 mg/kg i.p. 1 h before zymosan colitis, n = 4",301.3 ± 104.2%
same,"manometric response, percent of initial (control) response","[2]; 60 mmHg distension, 10 mg/kg i.p. 1 h before zymosan colitis, n = 4",243.7 ± 66.53%
same,"manometric response, percent of initial (control) response","[2]; 75 mmHg distension, 10 mg/kg i.p. 1 h before zymosan colitis, n = 4",230.9 ± 51.95%
same,"withdrawal latency to radiant thermal stimulus, 3 hrs post Cg administration",male Sprague-Dawley rats [3]; 3 mg/kg i.p.,8.44 ± 1.88 s
same,"withdrawal latency to radiant thermal stimulus, 3 hrs post Cg administration",male Sprague-Dawley rats [3]; 10 mg/kg i.p.,7.87 ± 1.01 s
same,"withdrawal latency to radiant thermal stimulus, 3 hrs post Cg administration",male Sprague-Dawley rats [3]; 30 mg/kg i.p.,6.05 ± 0.83 s
"O=C(N[C@H](CO)c1ccccc1)c1n[nH]c2c1CCCCC2Cc1cccc(Cl)c1 (stereo partly drawn) [Compound 1, 8-(3-chloro-benzyl)-1,4,5,6,7,8-hexahydro-cycloheptapyrazole-3-carboxylic acid [(1S)-2-hydroxy-1-phenyl-ethyl]-amide]",% MPE (percent maximal effect),Male CD-1 mice; 10 mg/kg i.p.,20.58 ± 9.27 % MPE
same,% MPE (percent maximal effect),Male CD-1 mice; 30 mg/kg i.p.,4.25 ± 10.65 % MPE
"CN1CC[C@]23c4c5ccc(O)c4O[C@H]2[C@@H](O)C=C[C@H]3[C@H]1C5 [Morphine, morphine, reference compound]","manometric response, percent of initial (control) response","[2]; 15 mmHg distension, morphine 3 mg/kg s.c. 4 hrs after colitis initiation, 30 min prior to CRD, n = 9",96.34 ± 12.53%
same,"manometric response, percent of initial (control) response","[2]; 30 mmHg distension, morphine 3 mg/kg s.c. 4 hrs after colitis initiation, 30 min prior to CRD, n = 9",69.96 ± 11.21%
same,"manometric response, percent of initial (control) response","[2]; 45 mmHg distension, morphine 3 mg/kg s.c. 4 hrs after colitis initiation, 30 min prior to CRD, n = 9",61.69 ± 8.72%
same,"manometric response, percent of initial (control) response","[2]; 60 mmHg distension, morphine 3 mg/kg s.c. 4 hrs after colitis initiation, 30 min prior to CRD, n = 9",56.33 ± 8.23%
same,"manometric response, percent of initial (control) response","[2]; 75 mmHg distension, morphine 3 mg/kg s.c. 4 hrs after colitis initiation, 30 min prior to CRD, n = 9",63.18 ± 9.19%
CN1CCCCC1Cn1cc(C(=O)c2cc([N+](=O)[O-])ccc2I)c2ccccc21 (stereo not shown) [AM1241],antinociception to thermal stimuli,CB2 receptor,produces antinociception to thermal stimuli
